Where two headings read alike, the source gives them in different places.
Legend:
[1] = molecular target: T1, α1AR (β-arrestin signaling) (Homo sapiens, UniProt P35348); assay: α1AR/β-arrestin-2 LinkLight assay; format: cell-based; conditions: α1A-TEV/β-arrestin-pLuc cells, Figure 3f; for EC50: adrenergic agonist panel, read-out: potency (rank order) in β-arrestin signaling
T1 construct: Full-length complementary DNAs of human GPCRs without stop codons were subcloned in frame with the tobacco etch virus (TEV) protease vector; expressed in transfected cells
T1 sequence (P35348 1-466): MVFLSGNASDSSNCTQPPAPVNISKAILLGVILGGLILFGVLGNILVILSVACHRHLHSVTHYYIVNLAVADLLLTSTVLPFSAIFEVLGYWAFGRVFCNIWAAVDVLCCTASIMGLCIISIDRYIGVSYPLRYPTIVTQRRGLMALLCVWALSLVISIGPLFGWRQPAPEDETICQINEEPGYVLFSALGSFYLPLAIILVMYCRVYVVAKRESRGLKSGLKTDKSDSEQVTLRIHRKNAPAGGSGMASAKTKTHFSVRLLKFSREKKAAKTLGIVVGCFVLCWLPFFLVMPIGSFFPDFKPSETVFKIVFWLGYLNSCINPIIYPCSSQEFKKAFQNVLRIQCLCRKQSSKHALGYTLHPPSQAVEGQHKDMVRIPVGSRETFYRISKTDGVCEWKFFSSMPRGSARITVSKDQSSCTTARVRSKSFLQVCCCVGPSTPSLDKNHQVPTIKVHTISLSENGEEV
Procedure: (§1) Multiple stable clones were selected for evaluation.
(§2) Cells were cultured overnight.
The GPCR/β-arrestin-2 LinkLight cells were seeded in white 384-well plates.

[2] = test system: α1AR/14-3-3 interaction; assay: Kinase inhibitor response in α1AR/14-3-3ε LinkLight cells; format: cell-based, human; conditions: preincubation of α1AR/14-3-3 cells; Figure 3c
[3] = test system: Raf-1/14-3-3 interaction; assay: Kinase inhibition of FBS-stimulated Raf-1/14-3-3 interaction in U2OS cells; format: cell-based; conditions: 7.5% FBS stimulation, Figure 4d
Procedure: as §2
The LinkLight cells were cultured in a white 384-well plate overnight. The culture medium was then replaced with serum-free DMEM.

[4] = test system: Raf-1/14-3-3ε interaction; assay: GPCR agonist-induced Raf-1/14-3-3ε interaction LinkLight assay in U2OS cells; format: cell-based; conditions: U2OS stably co-expressing Raf-1-TEV and 14-3-3ε-pLuc, endogenous GPCRs; Figure 4a
Source text: (§3) Full-length complementary DNAs of human GPCRs without stop codons were subcloned in frame with the tobacco etch virus (TEV) protease vector as previously described.[20],[21] The β-arrestin-2-permuted luciferase (β-arr-2-pLuc) expression plasmid was also previously described.[20],[21] 14-3-3ɛ and 14-3-3ζ full-length complementary DNAs without stop codons were used to replace β-arrestin-2 in the β-arr-2-pLuc for construction of the 14-3-3ɛ-pLuc and 14-3-3ζ-pLuc expression plasmids. […] Multiple stable clones were selected for evaluation.
The LinkLight cells stably expressing both GPCR-TEV and 14-3-3ε-pLuc were seeded into a 384-well white plate (Becton Dickinson, Franklin Lakes, NJ, USA) at 20 000 cells per well with 30 μl of regular medium. Cells were cultured overnight. The following day, the culture medium was replaced with 15 μl of serum-free DMEM, followed by the addition of 5 μl of compounds/drugs. Agonists were added as serial dilutions in serum-free DMEM from 10 mM dimethylsulfoxide stocks. For antagonist inhibition assays, the medium was replaced with 10 μl of serum-free DMEM. […] An equal volume of Bright-Glo (Promega, Madison, WI, USA), One-Glo (Promega), BriteLite (PerkinElmer, Billerica, MA, USA) or NeoLite (PerkinElmer) luciferase detection reagent was added for a 5-min incubation. The luminescence signals were determined using a luminescence plate reader (EnSpire or TopCount). Alternatively, after compound incubation, the culture medium was replaced with 10 μl of luciferase detection reagent, and luminescence signals were recorded.
The Raf-1/14-3-3ε LinkLight cells were seeded in white 384-well plates.

[5] = molecular target: T2, muscarinic cholinergic receptor 5 (CHRM5) (Homo sapiens, UniProt P08912); assay: CHRM5/14-3-3ε LinkLight assay, agonist mode; format: cell-based; conditions: stable CHRM5/14-3-3 LinkLight cells; Figure 2e
T2 construct: Full-length complementary DNAs of human GPCRs without stop codons were subcloned in frame with the tobacco etch virus (TEV) protease vector; expressed in transfected cells
T2 sequence (P08912 1-532): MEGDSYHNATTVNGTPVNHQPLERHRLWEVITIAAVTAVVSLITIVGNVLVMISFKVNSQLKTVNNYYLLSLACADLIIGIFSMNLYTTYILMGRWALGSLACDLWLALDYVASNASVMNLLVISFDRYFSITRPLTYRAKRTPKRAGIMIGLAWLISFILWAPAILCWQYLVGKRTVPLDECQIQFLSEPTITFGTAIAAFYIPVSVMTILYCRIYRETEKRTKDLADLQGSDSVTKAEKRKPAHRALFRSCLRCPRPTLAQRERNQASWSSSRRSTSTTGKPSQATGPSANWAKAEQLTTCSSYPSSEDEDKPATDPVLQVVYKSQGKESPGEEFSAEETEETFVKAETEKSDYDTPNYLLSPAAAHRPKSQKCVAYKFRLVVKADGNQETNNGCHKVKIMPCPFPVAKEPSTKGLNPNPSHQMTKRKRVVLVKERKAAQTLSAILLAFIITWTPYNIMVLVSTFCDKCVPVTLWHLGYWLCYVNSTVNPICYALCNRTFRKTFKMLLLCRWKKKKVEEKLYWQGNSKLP
Source text: as §3
(§4) The LinkLight cells stably expressing both GPCR-TEV and 14-3-3ε-pLuc were seeded into a 384-well white plate (Becton Dickinson, Franklin Lakes, NJ, USA) at 20 000 cells per well with 30 μl of regular medium. Cells were cultured overnight. The following day, the culture medium was replaced with 15 μl of serum-free DMEM, followed by the addition of 5 μl of compounds/drugs. Agonists were added as serial dilutions in serum-free DMEM from 10 mM dimethylsulfoxide stocks. For antagonist inhibition assays, the medium was replaced with 10 μl of serum-free DMEM. […] The luminescence signals were determined using a luminescence plate reader (EnSpire or TopCount). Alternatively, after compound incubation, the culture medium was replaced with 10 μl of luciferase detection reagent, and luminescence signals were recorded. […]

[6] = molecular target: T3, Alpha adrenergic receptor 1A (α1AR) (Homo sapiens, UniProt P35348); assay: α1AR/14-3-3ε LinkLight assay (agonist-induced GPCR-mediated 14-3-3 signaling); format: cell-based
T3 construct: Full-length complementary DNAs of human GPCRs without stop codons were subcloned in frame with the tobacco etch virus (TEV) protease vector; expressed in transfected cells
T3 sequence (P35348 1-466): T1 sequence (P35348 1-466)
Procedure: as §1, §2

[7] = molecular target: T2, muscarinic cholinergic receptor 5 (CHRM5); assay: CHRM5/14-3-3ε LinkLight assay, antagonist mode; format: cell-based; conditions: preincubation with antagonist, then 3 μM carbachol; Figure 2f
Source text: as §3, §4

[8] = molecular target: T4, β3 adrenergic receptor (ADRB3) (Homo sapiens, UniProt P13945); assay: ADRB3/14-3-3 LinkLight assay; format: cell-based; conditions: HEK293 stably expressing ADRB3-TEV and 14-3-3-pLuc; Figure 3d
T4 construct: Full-length complementary DNAs of human GPCRs without stop codons were subcloned in frame with the tobacco etch virus (TEV) protease vector; expressed in transfected cells
T4 sequence (P13945 whole entry): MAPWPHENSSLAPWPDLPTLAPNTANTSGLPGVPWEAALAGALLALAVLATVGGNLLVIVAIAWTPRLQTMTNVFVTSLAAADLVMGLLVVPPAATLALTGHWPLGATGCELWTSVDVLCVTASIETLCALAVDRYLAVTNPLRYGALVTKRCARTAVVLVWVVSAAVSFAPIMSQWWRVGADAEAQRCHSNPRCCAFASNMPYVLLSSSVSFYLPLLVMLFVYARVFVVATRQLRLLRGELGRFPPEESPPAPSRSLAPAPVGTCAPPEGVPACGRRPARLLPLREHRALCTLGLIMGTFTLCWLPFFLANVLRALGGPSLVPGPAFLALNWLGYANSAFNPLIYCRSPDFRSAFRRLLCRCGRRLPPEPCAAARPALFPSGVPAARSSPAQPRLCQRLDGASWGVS
Procedure: as §1, §2

[9] = α1A-TEV/14-3-3ε-pLuc cells, adrenergic agonist panel, Figure 3e, read-out: potency (rank order) in the 14-3-3 signaling assay

SMILES: C[C@H](Cc1ccc(OCC(=O)O)cc1)NC[C@H](O)c1cccc(Cl)c1 [BRL37344]
- agonist behaviour in β-arrestin signaling versus 14-3-3 signaling [1]: much weaker agonists of β-arrestin signaling than of 14-3-3 signaling

SMILES: Cn1c(CNc2cccc(C(=O)NCc3ccccc3C(F)(F)F)c2)nnc1-c1ccncc1 [CMPD101]
- inhibition of cirazoline-stimulated α1AR/14-3-3 signals [2]: did not inhibit

SMILES: O=C1Nc2ccc(I)cc2/C1=C/c1cc(Br)c(O)c(Br)c1 [GW5074]
- inhibition of FBS-stimulated Raf-1/14-3-3 interaction signals [3]: very weak inhibition activity

SMILES: O=S(=O)(NCCNC/C=C/c1ccc(Br)cc1)c1cccc2cnccc12 [H-89]
- inhibition of cirazoline-stimulated α1AR/14-3-3 signals [2]: did not inhibit

SMILES: CCNC(=O)[C@H]1O[C@@H](n2cnc3c(N)ncnc32)[C@H](O)[C@@H]1O [NECA, 5'-N-ethylcarboxamidoadenosine]
- Raf-1/14-3-3 interaction signals on stimulation with GPCR agonist [4]: concentration-dependent Raf-1/14-3-3 interaction signals

SMILES: O=C1CCCN1CC#CCN1CCCC1 [Oxotremorine, oxotremorine]
- agonist behaviour for 14-3-3 signaling (full/partial) [5]: full agonists

SMILES: Brc1c(NC2=NCCN2)ccc2nccnc12 [UK14304]
- EC50 [6, 9]: 55.2 nM
- EC50 [1]: 780 nM

SMILES: CNC[C@H](O)c1ccc(O)c(O)c1 [adrenaline]
- Raf-1/14-3-3 interaction signals on stimulation with GPCR agonist [4]: concentration-dependent Raf-1/14-3-3 interaction signals

SMILES: CN1[C@@H]2CC[C@H]1C[C@@H](OC(=O)C(CO)c1ccccc1)C2 (stereo partly shown) [atropine]
- inhibition of agonist-induced CHRM5-mediated 14-3-3 signals [7]: antagonist concentration-dependent inhibition signals

SMILES: C[N+](C)(C)CCOC(N)=O [carbachol]
- agonist behaviour for 14-3-3 signaling (full/partial) [5]: full agonists

SMILES: c1ccc(C2CC2)c(OCC2=NCCN2)c1 [cirazoline]
- EC50 ([6]; HEK293 stably co-expressing α1A-TEV/14-3-3ε-pLuc, Figure 2a, read-out: EC50, α1AR-mediated 14-3-3 signaling): 9.5 nM
- EC50 [6, 9]: 1.72 nM
- ADRB3/14-3-3 interaction signals [8]: very weak signals even at 10 μM
- EC50 [1]: 18.4 nM

SMILES: NCCc1ccc(O)c(O)c1 [dopamine]
- Raf-1/14-3-3 interaction signals on stimulation with GPCR agonist [4]: concentration-dependent Raf-1/14-3-3 interaction signals

SMILES: N=C(N)NC(=O)Cc1c(Cl)cccc1Cl [guanfacine]
- EC50 [6, 9]: 12.4 nM
- ADRB3/14-3-3 interaction signals [8]: very weak signals even at 10 μM
- EC50 [1]: 1610 nM

SMILES: CC(C)NCC(O)c1ccc(O)c(O)c1 (stereo not shown) [isoproterenol]
- ADRB3/14-3-3 interaction signals [8]: promoted ADRB3/14-3-3 interaction signals in a concentration-dependent manner
- agonist behaviour in β-arrestin signaling versus 14-3-3 signaling [1]: much weaker agonists of β-arrestin signaling than of 14-3-3 signaling

SMILES: COc1ccc(OC)c(C(O)C(C)N)c1 (stereo not shown) [methoxamine]
- EC50 [6, 9]: 11.1 nM
- EC50 [1]: 318 nM

SMILES: CN1[C@@H]2C[C@@H](OC(=O)[C@H](CO)c3ccccc3)C[C@H]1[C@@H]1O[C@@H]12 [scopolamine]
- inhibition of agonist-induced CHRM5-mediated 14-3-3 signals [7]: antagonist concentration-dependent inhibition signals

SMILES: CCCS(=O)(=O)Nc1ccc(F)c(C(=O)c2c[nH]c3ncc(-c4ccc(Cl)cc4)cc23)c1F [vemurafenib]
- inhibition of FBS-stimulated Raf-1/14-3-3 interaction signals [3]: partial inhibition
